Source: ChEMBL document CHEMBL1201862, “PubChem BioAssay data set” (2004)
The source made the active and inactive calls. Cut-off read from the data, not from the text of the source: actives have a measured IC50 and inactives only a lower limit.

Molecular target: Envelope glycoprotein gp160 (Human immunodeficiency virus 1, UniProt Q6QLK5)
Experiment: inhibitors of HIV fusion peptide binding, primary screen, biochemical, uHTS, fluorescence dequenching (AID 1986)

Sequence of Envelope glycoprotein gp160 (Q6QLK5 whole entry, the tested form may be a part): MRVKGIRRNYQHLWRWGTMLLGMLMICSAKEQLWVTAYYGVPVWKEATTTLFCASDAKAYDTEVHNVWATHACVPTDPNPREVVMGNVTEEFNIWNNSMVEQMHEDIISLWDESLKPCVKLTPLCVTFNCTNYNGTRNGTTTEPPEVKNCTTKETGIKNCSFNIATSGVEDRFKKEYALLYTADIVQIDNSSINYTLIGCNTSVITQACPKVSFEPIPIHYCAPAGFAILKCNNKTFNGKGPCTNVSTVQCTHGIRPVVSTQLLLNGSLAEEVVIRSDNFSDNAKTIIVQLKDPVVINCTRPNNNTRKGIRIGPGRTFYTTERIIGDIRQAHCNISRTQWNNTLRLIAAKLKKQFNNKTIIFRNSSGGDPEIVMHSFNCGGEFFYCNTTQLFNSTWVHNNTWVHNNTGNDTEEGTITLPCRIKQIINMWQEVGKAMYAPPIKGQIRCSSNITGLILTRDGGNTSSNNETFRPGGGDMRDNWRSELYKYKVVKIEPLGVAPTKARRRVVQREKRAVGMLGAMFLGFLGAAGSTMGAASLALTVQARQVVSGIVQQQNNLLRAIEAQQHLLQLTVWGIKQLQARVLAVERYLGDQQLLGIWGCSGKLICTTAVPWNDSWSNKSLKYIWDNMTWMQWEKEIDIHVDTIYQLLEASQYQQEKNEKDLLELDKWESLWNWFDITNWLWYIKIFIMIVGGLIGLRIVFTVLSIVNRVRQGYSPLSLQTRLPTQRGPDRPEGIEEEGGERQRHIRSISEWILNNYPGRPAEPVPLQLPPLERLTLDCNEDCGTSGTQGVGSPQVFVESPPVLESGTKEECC

Row | Structure (SMILES) | IC50
1 | COC(=O)c1sc(-c2ccc(C(C)(C)C)cc2)cc1NC(=O)CSCC(=O)O | 15.4 µM (active)
2 | O=C(CCN1C(=O)/C(=C/c2ccccc2Cl)SC1=S)Nc1ccccc1C(=O)O | 19.4 µM (active)
3 | COc1cc(/C=C2\C(=N)N3N=C(S(C)(=O)=O)SC3=NC2=O)cc(OC)c1OCCOc1ccc(C)cc1 | 11 µM (active)
